Counter-ions that a name gives are not always drawn. Like-named read-outs stand apart in the source and are kept apart here.
How the values were obtained:
[1] = test system: intestinal resorption of cholesterol; experiment: Inhibition of intestinal resorption of [26-^14 C]-cholesterol (CHORES) in squirrel monkeys; assay type: in vivo; settings: Primates, po, 60 h, 100 μmol/kg p.o., percent of control values determined prior to medication (pre-period), feces collected 2.5 days
Source text: Squirrel monkeys are orally administered the substances to be investigated together with a test feed containing a protein, starch, triolein and [26-^14 C]-cholesterol. Thereafter, the feces is collected for 2.5 days. The difference between the administered and the collected radioactive cholesterol determined in the feces is taken as the measurement of resorbed cholesterol. The cholesterol resorption (CHORES) is expressed in percentages of the control values determined prior to the medication.
(§1) The results which have been obtained with some representative products in accordance with the invention are reproduced in Table I. For each of the compounds indicated in Table I the cholesterol resorption, determined at a dosage of 100 μmol/kg p.o., is given in percentages of the control values determined prior to the medication (pre-period). Moreover, the Table contains data concerning the acute toxicity of the compounds investigated (LD50 in mg/kg in the case of single oral or intravenous administration to mice).

[2] = Acute toxicity, single oral or intravenous administration to mice; settings: mouse, in vivo
Source text: as §1

[3] = i.v., single intravenous administration to mice, read-out: LD50 i.v.
[4] = p.o., single oral administration to mice, read-out: LD50 p.o.

Row | SMILES | response vs control in vivo at 100 µmol/kg [1] | LD50 [2, 3] | LD50 [2, 4]
1 | CC[C@H](CC[C@@H](C)[C@H]1CC[C@H]2[C@@H]3CC[C@H]4C[C@@H](OC(=O)OCCOP(=O)([O-])OCC[N+](C)(C)C)CC[C@]4(C)[C@H]3CC[C@]12C)C(C)C [Example 2a, O-[[2-[[(5α-stigmastan-3β-yloxy)carbonyl]oxy]ethoxy]hydroxyphosphinyl]choline hydroxide internal salt] | 38% | 250 mg/kg | 4000 mg/kg
2 | CC[C@H](CC[C@@H](C)[C@H]1CC[C@H]2[C@@H]3CC[C@H]4C[C@@H](OC(=O)CCCOP(=O)([O-])OCC[N+](C)(C)C)CC[C@]4(C)[C@H]3CC[C@]12C)C(C)C [Example 2k, O-[hydroxy-[3-[(3β-stigmastanyloxy)carbonyl]propoxy]phosphinyl]choline hydroxide internal salt] | 39% | 250 mg/kg | 4000 mg/kg
3 | CC(C)CCC[C@@H](C)[C@H]1CC[C@H]2[C@@H]3CC=C4C[C@@H](OCCOP(=O)([O-])OCC[N+](C)(C)C)CC[C@]4(C)[C@H]3CC[C@]12C [Example 2q, O-[[2-(cholest-5-en-3β-yloxy)ethoxy]hydroxyphosphinyl]choline hydroxide internal salt] | 16% | 250 mg/kg | 4000 mg/kg
4 | CC[C@H](/C=C/[C@@H](C)[C@H]1CC[C@H]2[C@@H]3CC=C4C[C@@H](OCCOP(=O)([O-])OCC[N+](C)(C)C)CC[C@]4(C)[C@H]3CC[C@]12C)C(C)C [Example 2r, O-[hydroxy-[2-(stigmasta-5,22-dien-3β-yloxy)ethoxy]phosphinyl]cholinehydroxide internal salt] | 37% | 500 mg/kg | 4000 mg/kg
5 | CC[C@H](CC[C@@H](C)[C@H]1CC[C@H]2[C@@H]3CC[C@H]4C[C@@H](OCCOCCOP(=O)([O-])OCC[N+](C)(C)C)CC[C@]4(C)[C@H]3CC[C@]12C)C(C)C [Example 4a, O-[hydroxy-[2-[2-(3β-stigmastanyloxy)ethoxy]ethoxy]phosphinyl]cholinehydroxide internal salt] | 30% |  | 
6 | CC[C@H](CC[C@@H](C)[C@H]1CC[C@H]2[C@@H]3CC[C@H]4C[C@@H](OC(=O)NCCOP(=O)([O-])OCC[N+](C)(C)C)CC[C@]4(C)[C@H]3CC[C@]12C)C(C)C [Example 5, O-[hydroxy-[2-[1-(5α-stigmastan-3β-yloxy)formamido]ethoxy]phosphinyl]choline hydroxide internal salt] | 40% |  | 
7 | CC[C@H](CC[C@@H](C)[C@H]1CC[C@H]2[C@@H]3CC[C@H]4C[C@@H](OC(=O)NCCOP(=O)([O-])OCC[n+]5ccccc5)CC[C@]4(C)[C@H]3CC[C@]12C)C(C)C [Example 6, 1-[2-[[hydroxy-[2-[1-(5α-stigmastan-3β-yloxy)-formamido]ethoxy]phosphinyl]oxy]ethyl]pyridinum hydroxide internal salt] | 31% |  | 4000 mg/kg
8 | CC[C@H](/C=C/[C@@H](C)[C@H]1CC[C@H]2[C@@H]3CC=C4C[C@@H](OC(=O)NCCOP(=O)([O-])OCC[N+](C)(C)C)CC[C@]4(C)[C@H]3CC[C@]12C)C(C)C [Example 7a, O-[hydroxy-[2-[1-[(E)-stigmasta-5,22-dien-3β-yloxy]formamido]ethoxy]phosphinyl]choline hydroxide internal salt] | 35% |  | 
9 | CC[C@H](CC[C@@H](C)[C@H]1CC[C@H]2[C@@H]3CC=C4C[C@@H](OC(=O)OCCOP(=O)([O-])OCC[N+](C)(C)C)CC[C@]4(C)[C@H]3CC[C@]12C)C(C)C [Example 16, O-[hydroxy-[2-[[(stigmast-5-en-3β-yloxy)carbonyl]oxy]ethoxy]-phosphinyl]choline hydroxide internal salt] | 40% |  | 

Source: patent publication US5215972A, “Steroids” (Hoffmann-La Roche Inc., priority 1989, dated 1993)
